# In the supplement of paper PMC10307832:
# Assays:
# Experiment in all cases: relative viability (nuclei count vs DMSO), 5 days (fraction); higher = more cells survive
# 201T = system: 201T
# Outline: (§1)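 Five library-drug doses in √10 steps were combined with a fixed anchor-drug dose, or a single drug was given alone, by pin tool to lung cancer cell lines in 1536-well plates the day after seeding. Nuclei were stained and counted after 5 days. Relative viability is the nuclei count in treated wells over that in vehicle wells, taken as the median of duplicate plates.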
# BEN = system: BEN
# Outline: as §1
# EMC-BAC-2 = system: EMC-BAC-2
# Outline: as §1
# HARA = system: HARA
# Outline: as §1
# HCC-44 = system: HCC-44
# Outline: as §1
# LCLC-103H = system: LCLC-103H
# Outline: as §1
# LOU-NH91 = system: LOU-NH91
# Outline: as §1
# NCI-H1395 = system: NCI-H1395
# Outline: as §1
# NCI-H1666 = system: NCI-H1666
# Outline: as §1
# NCI-H1993 = system: NCI-H1993
# Outline: as §1
# NCI-H2009 = system: NCI-H2009
# Outline: as §1
# NCI-H2023 = system: NCI-H2023
# Outline: as §1
# NCI-H2087 = system: NCI-H2087
# Outline: as §1
# NCI-H2126 = system: NCI-H2126
# Outline: as §1
# NCI-H2347 = system: NCI-H2347
# Outline: as §1
# NCI-H23 = system: NCI-H23
# Outline: as §1
# NCI-H3122 = system: NCI-H3122
# Outline: as §1
# NCI-H441 = system: NCI-H441
# Outline: as §1
# NCI-H596 = system: NCI-H596
# Outline: as §1
# NCI-H647 = system: NCI-H647
# Outline: as §1
# NCI-H650 = system: NCI-H650
# Outline: as §1
# NCI-H727 = system: NCI-H727
# Outline: as §1
# NCI-H838 = system: NCI-H838
# Outline: as §1
smiles,measurement,setting,value
COc1cc(N2CCC(C(N)=O)CC2)ccc1Nc1nc(N)c(Cl)c(Nc2ccccc2S(=O)(=O)C(C)C)n1 [HG-5-88-01] + CS(=O)(=O)N1CCN(Cc2cc3nc(-c4cccc5[nH]ncc45)nc(N4CCOCC4)c3s2)CC1 [Pictilisib] (partner 1 µM),relative viability,201T; first compound 0.04 µM,0.71
same,relative viability,201T; first compound 0.1265 µM,0.64
same,relative viability,201T; first compound 0.4 µM,0.649
same,relative viability,201T; first compound 1.265 µM,0.729
same,relative viability,201T; first compound 4 µM,0.739
same,relative viability,BEN; first compound 0.04 µM,0.504
same,relative viability,BEN; first compound 0.1265 µM,0.523
same,relative viability,BEN; first compound 0.4 µM,0.544
same,relative viability,BEN; first compound 1.265 µM,0.468
same,relative viability,BEN; first compound 4 µM,0.447
same,relative viability,EMC-BAC-2; first compound 0.04 µM,0.531
same,relative viability,EMC-BAC-2; first compound 0.1265 µM,0.509
same,relative viability,EMC-BAC-2; first compound 0.4 µM,0.495
same,relative viability,EMC-BAC-2; first compound 1.265 µM,0.554
same,relative viability,EMC-BAC-2; first compound 4 µM,0.505
same,relative viability,HARA; first compound 0.04 µM,0.438
same,relative viability,HARA; first compound 0.1265 µM,0.358
same,relative viability,HARA; first compound 0.4 µM,0.414
same,relative viability,HARA; first compound 1.265 µM,0.411
same,relative viability,HARA; first compound 4 µM,0.301
same,relative viability,HCC-44; first compound 0.04 µM,0.695
same,relative viability,HCC-44; first compound 0.1265 µM,0.569
same,relative viability,HCC-44; first compound 0.4 µM,0.542
same,relative viability,HCC-44; first compound 1.265 µM,0.519
same,relative viability,HCC-44; first compound 4 µM,0.375
same,relative viability,LCLC-103H; first compound 0.04 µM,0.643
same,relative viability,LCLC-103H; first compound 0.1265 µM,0.555
same,relative viability,LCLC-103H; first compound 0.4 µM,0.484
same,relative viability,LCLC-103H; first compound 1.265 µM,0.608
same,relative viability,LCLC-103H; first compound 4 µM,0.426
same,relative viability,LOU-NH91; first compound 0.04 µM,0.495
same,relative viability,LOU-NH91; first compound 0.1265 µM,0.514
same,relative viability,LOU-NH91; first compound 0.4 µM,0.513
same,relative viability,LOU-NH91; first compound 1.265 µM,0.482
same,relative viability,LOU-NH91; first compound 4 µM,0.401
same,relative viability,NCI-H1395; first compound 0.04 µM,0.582
same,relative viability,NCI-H1395; first compound 0.1265 µM,0.587
same,relative viability,NCI-H1395; first compound 0.4 µM,0.598
same,relative viability,NCI-H1395; first compound 1.265 µM,0.584
same,relative viability,NCI-H1395; first compound 4 µM,0.523
same,relative viability,NCI-H1666; first compound 0.04 µM,0.503
same,relative viability,NCI-H1666; first compound 0.1265 µM,0.43
same,relative viability,NCI-H1666; first compound 0.4 µM,0.467
same,relative viability,NCI-H1666; first compound 1.265 µM,0.476
same,relative viability,NCI-H1666; first compound 4 µM,0.34
same,relative viability,NCI-H1993; first compound 0.04 µM,0.689
same,relative viability,NCI-H1993; first compound 0.1265 µM,0.829
same,relative viability,NCI-H1993; first compound 0.4 µM,0.606
same,relative viability,NCI-H1993; first compound 1.265 µM,1.04
same,relative viability,NCI-H1993; first compound 4 µM,0.873
same,relative viability,NCI-H2009; first compound 0.04 µM,0.771
same,relative viability,NCI-H2009; first compound 0.1265 µM,0.882
same,relative viability,NCI-H2009; first compound 0.4 µM,0.693
same,relative viability,NCI-H2009; first compound 1.265 µM,0.793
same,relative viability,NCI-H2009; first compound 4 µM,0.631
same,relative viability,NCI-H2023; first compound 0.04 µM,0.222
same,relative viability,NCI-H2023; first compound 0.1265 µM,0.245
same,relative viability,NCI-H2023; first compound 0.4 µM,0.16
same,relative viability,NCI-H2023; first compound 1.265 µM,0.159
same,relative viability,NCI-H2023; first compound 4 µM,0.171
same,relative viability,NCI-H2087; first compound 0.04 µM,0.835
same,relative viability,NCI-H2087; first compound 0.1265 µM,1.08
same,relative viability,NCI-H2087; first compound 0.4 µM,0.928
same,relative viability,NCI-H2087; first compound 1.265 µM,0.771
same,relative viability,NCI-H2087; first compound 4 µM,0.9
same,relative viability,NCI-H2126; first compound 0.04 µM,0.419
same,relative viability,NCI-H2126; first compound 0.1265 µM,0.435
same,relative viability,NCI-H2126; first compound 0.4 µM,0.513
same,relative viability,NCI-H2126; first compound 1.265 µM,0.501
same,relative viability,NCI-H2126; first compound 4 µM,0.38
same,relative viability,NCI-H2347; first compound 0.04 µM,0.603
same,relative viability,NCI-H2347; first compound 0.1265 µM,0.645
same,relative viability,NCI-H2347; first compound 0.4 µM,0.683
same,relative viability,NCI-H2347; first compound 4 µM,0.471
same,relative viability,NCI-H23; first compound 0.04 µM,0.382
same,relative viability,NCI-H23; first compound 0.1265 µM,0.572
same,relative viability,NCI-H23; first compound 0.4 µM,0.469
same,relative viability,NCI-H23; first compound 1.265 µM,0.533
same,relative viability,NCI-H23; first compound 4 µM,0.35
same,relative viability,NCI-H3122; first compound 0.04 µM,0.252
same,relative viability,NCI-H3122; first compound 0.1265 µM,0.174
same,relative viability,NCI-H3122; first compound 0.4 µM,0.2
same,relative viability,NCI-H3122; first compound 1.265 µM,0.172
same,relative viability,NCI-H3122; first compound 4 µM,0.173
same,relative viability,NCI-H441; first compound 0.04 µM,0.435
same,relative viability,NCI-H441; first compound 0.1265 µM,0.409
same,relative viability,NCI-H441; first compound 0.4 µM,0.494
same,relative viability,NCI-H441; first compound 1.265 µM,0.352
same,relative viability,NCI-H441; first compound 4 µM,0.536
same,relative viability,NCI-H596; first compound 0.04 µM,0.447
same,relative viability,NCI-H596; first compound 0.1265 µM,0.42
same,relative viability,NCI-H596; first compound 0.4 µM,0.382
same,relative viability,NCI-H596; first compound 1.265 µM,0.414
same,relative viability,NCI-H596; first compound 4 µM,0.312
same,relative viability,NCI-H647; first compound 0.04 µM,0.342
same,relative viability,NCI-H647; first compound 0.1265 µM,0.407
same,relative viability,NCI-H647; first compound 0.4 µM,0.453
same,relative viability,NCI-H647; first compound 1.265 µM,0.371
same,relative viability,NCI-H647; first compound 4 µM,0.443
same,relative viability,NCI-H650; first compound 0.04 µM,0.88
same,relative viability,NCI-H650; first compound 0.1265 µM,0.925
same,relative viability,NCI-H650; first compound 0.4 µM,0.864
same,relative viability,NCI-H650; first compound 1.265 µM,0.743
same,relative viability,NCI-H650; first compound 4 µM,0.685
same,relative viability,NCI-H727; first compound 0.04 µM,0.486
same,relative viability,NCI-H727; first compound 0.1265 µM,0.448
same,relative viability,NCI-H727; first compound 0.4 µM,0.24
same,relative viability,NCI-H727; first compound 1.265 µM,0.261
same,relative viability,NCI-H727; first compound 4 µM,0.249
same,relative viability,NCI-H838; first compound 0.04 µM,0.312
same,relative viability,NCI-H838; first compound 0.1265 µM,0.503
same,relative viability,NCI-H838; first compound 0.4 µM,0.337
same,relative viability,NCI-H838; first compound 1.265 µM,0.393
same,relative viability,NCI-H838; first compound 4 µM,0.383
